Patent US10842152B2, “Isothiazolo-based bicycles, processes for their preparation and their use as herbicides and/or plant growth regulators” (Bayer CropScience Aktiengesellschaft, priority 2017, dated 2020)

Experiments:
Assay type in all cases: in vivo
[1] = test system: Amaranthus retroflexus; assay: Herbicidal effect post-emergence; conditions: 320 g/ha, visual grading after ca. 3 weeks (Table 9)
Excerpt: (§1) Herbicidal activities of the compounds of the formulae (G1) or (G2) according to the invention were investigated against the following harmful plants: • ALOMY=Alopecurus myosuroides • ECHCG=Echinochloa crus-galli • SETVI=Setaria viridis • ABUTH=Abutilon theophrasti • AMARE=Amaranthus retroflexus • PHBPU=Pharbitis purpurea • POLCO=Polygonum convolvulus (=Fallopia convolvulus) • STEME=Stellaria media • VIOTR=Viola tricolor
(§2) Seeds of mono- and dicotyledonous weed plants and crop plants are sown in wood-fiber pots in sandy loam, covered with soil and grown in a greenhouse under controlled growth conditions. 2 to 3 weeks after sowing, the test plants are sprayed in the single-leaf stage. The compounds according to the invention, formulated in form of wettable powders (WP) or as emulsifiable concentrates (EC), are then sprayed onto the green plant parts as aqueous suspension or emulsion, with the addition of 0.5% of an additive, at an application rate of 600 l of water/ha (converted). After the test plants had been in the greenhouse for ca. 3 weeks under optimum growth conditions, the effect of the preparations is assessed visually in comparison with untreated controls (herbicidal effect in percent (%): 100% effect=plants have died off, 0% effect=as control plants).

[2] = test system: Viola tricolor; assay: Herbicidal effect post-emergence; conditions: 320 g/ha, visual grading after ca. 3 weeks (Table 9)
Excerpt: as §1, §2

[3] = test system: Setaria viridis; assay: Herbicidal effect post-emergence; conditions: 320 g/ha, visual grading after ca. 3 weeks (Table 9)
Excerpt: as §1, §2

[4] = test system: Amaranthus retroflexus; assay: Herbicidal effect pre-emergence; conditions: 320 g/ha, visual grading after ca. 3 weeks vs untreated controls
Excerpt: as §1
(§3) Seeds of mono- and dicotyledonous weed plants and crop plants are sown in wood-fiber pots in sandy loam and covered with soil. The compounds according to the invention, formulated in the form of wettable powders (WP) or as emulsifiable concentrates (EC), are then applied to the surface of the covering soil as aqueous suspension or emulsion, with the addition of 0.5% of an additive, at an application rate of 600 l of water/ha (converted).
(§4) Following treatment, the pots are placed in a greenhouse and kept under optimum growth conditions for the test plants. The visual grading of the damage to the test plants is carried out after ca. 3 weeks in comparison to untreated controls (herbicidal effect in percent (%): 100% effect=plants have died off, 0% effect=as control plants).

[5] = test system: Viola tricolor; assay: Herbicidal effect pre-emergence; conditions: 320 g/ha, visual grading after ca. 3 weeks vs untreated controls
Excerpt: as §1, §3, §4

[6] = test system: Setaria viridis; assay: Herbicidal effect pre-emergence; conditions: 320 g/ha, visual grading after ca. 3 weeks vs untreated controls
Excerpt: as §1, §3, §4

SMILES	herbicidal effect AMARE [1]	herbicidal effect VIOTR [2]	herbicidal effect SETVI [3]	herbicidal effect AMARE [4]	herbicidal effect VIOTR [5]	herbicidal effect SETVI [6]
C=CCc1cn(CC2CCCCC2)c(=O)c2snc(N)c12 [Example I-143]	100%	100%	100%	–	–	–
CC(O)c1cn(CC2CCCCC2)c(=O)c2snc(N)c12 (stereo not drawn) [Example I-147]	100%	100%	80%	–	–	–
CCC(=O)N(C(=O)CC)c1nsc2c(=O)n(CC3CCCCC3)cc(Br)c12 [Example I-079]	100%	100%	90%	100%	100%	100%
CCC(=O)Nc1nsc2c1CC(CO)N(CC1CCCCC1)C2=O (stereo not drawn) [Example I-044]	100%	100%	100%	100%	100%	90%
CCc1cn(CC2CCCCC2)c(=O)c2snc(NC(=O)C(F)(F)C(F)(F)F)c12 [Example I-107]	–	–	–	100%	100%	80%
CCCc1cc2c(NC(=O)C(F)(F)C(F)(F)F)nsc2c(=O)n1CC1CCCCC1 [Example I-032]	–	–	–	80%	80%	100%
CC(C)c1cc2c(NC(=O)C(F)(F)C(F)(F)F)nsc2c(=O)n1CC1CCCCC1 [Example I-021, N-[6-(cyclohexylmethyl)-5-isopropyl-7-oxo-isothiazolo[5,4-c]pyridin-3-yl]-2,2,3,3,3-pentafluoro-propanamide]	100%	80%	100%	100%	100%	90%
CCc1cc2c(N)nsc2c(=O)n1CC1CCCCC1 [Example I-020]	100%	100%	100%	–	–	–
CCC(=O)OCc1cc2c(N)nsc2c(=O)n1CC1CCCCC1 [Example I-046]	–	–	–	100%	90%	100%
CCC(=O)N(C(=O)CC)c1nsc2c(=O)n(CC3CCCCC3)cc(Cl)c12 [Example I-082]	100%	100%	100%	100%	100%	100%
C=Cc1cn(CC2CCCCC2)c(=O)c2snc(N)c12 [Example I-080]	100%	80%	100%	80%	100%	80%
COC(C)(C)C#Cc1cn(CC2CCCCC2)c(=O)c2snc(N)c12 [Example I-105]	–	–	–	100%	100%	100%
COCC(=O)Nc1nsc2c(=O)n(CC3CCCCC3)cc(Cl)c12 [Example I-085]	100%	100%	100%	100%	100%	100%
CCO/C=C/c1cn(CC2CCCCC2)c(=O)c2snc(N)c12 [Example I-113]	100%	100%	100%	–	–	–
CCC(=O)Nc1nsc2c(=O)n(CC3CCCCC3)c(COC)cc12 [Example I-033]	–	–	–	100%	100%	100%
C/C(=N/OCC1CC1)c1cn(CC2CCCCC2)c(=O)c2snc(N)c12 [Example I-167]	–	–	–	100%	100%	100%
CCO/N=C(/C)c1cn(CC2CCCCC2)c(=O)c2snc(N)c12 [Example I-142]	100%	80%	100%	–	–	–
CC(=O)c1cn(CC2CCCCC2)c(=O)c2c1C(N)=NS2(=O)=O [Example I-158]	–	–	–	90%	100%	80%
COCC#Cc1cn(CC2CCCCC2)c(=O)c2snc(N)c12 [Example I-103]	100%	100%	100%	90%	100%	80%
